Source: US12594267B2, “Capsid inhibitors for the treatment of HIV” (Gilead Sciences, Inc., priority 2018, dated 2026)
Like-named read-outs stand apart in the source and are kept apart here.

Key:
NNRTI-resistant viruses = assay: Cytopathic antiviral assay in MT-2 cells, NNRTI-resistant viruses; type: cell-based, HIV-1; conditions: for EC50 Fold-Change: Mutant/WT (HXB2D) EC50 ratio, mean ± s.d. of three experiments
Experimental: (§1) The antiviral activity of the compound of Formula (a) was tested against a panel of known HIV-1 mutants resistant to HIV PIs (ATV and DRV), NRTIs (TFV and FTC), NNRTIs (RPV and EFV) or INSTIs (RAL, EVG and DTG) using a cytopathic antiviral assay in MT-2 cells. The compound of Formula (Ia) was fully active against all tested mutants resistant to PIs (Table 11), NRTIs (Table 12), NNRTIs (Table 13) or INSTIs (Table 14).

INSTI-resistant viruses = assay: Cytopathic antiviral assay in MT-2 cells, INSTI-resistant viruses; type: cell-based, HIV-1; conditions: for EC50 Fold-Change: Mutant/WT (HXB2D) EC50 ratio, mean ± s.d. of three experiments
Experimental: as §1

[1] = Plasma PK after single oral administration in solution, rat; type: in vivo, Sprague-Dawley Rat
Experimental: An oral formulation containing a compound of Formula (Ia) in […], 20% propylene glycol, 45 PEG 300, and 30% 0.01 N HCl was prepared. The formulation was orally administered to male rat, dog, cynomolgus monkey, and rhesus monkey according to the doses shown in Table 8 below.

HIV-1 clinical isolates = assay: Antiviral activity against HIV-1 clinical isolates in PHA-stimulated human PBMCs; type: cell-based
Experimental: The antiretroviral activity of the compound of Formula (Ia) was tested against a panel of 22 HIV-1 clinical isolates of HIV-1 and two HIV-2 isolates in freshly isolated, PHA-stimulated human peripheral blood mononuclear cells (PBMCs). The HIV-1 isolates included representative strains from subtypes A, B, C, D, E, F, G, N, O, AE, and AG. Following a 7-day infection, virus production was determined by measuring reverse transcriptase activity in cell-free culture supernatants.

[2] = male, Sprague-Dawley, plasma, rat, single oral 5.0 mg/kg, solution in 5% ethanol/20% propylene glycol/45% PEG 300/30% 0.01 N HCl, mean ± SD, n=3

CC(C)(C#Cc1ccc(-c2ccc(Cl)c3c(NS(C)(=O)=O)nn(CC(F)(F)F)c23)c([C@H](Cc2cc(F)cc(F)c2)NC(=O)Cn2nc(C(F)(F)F)c3c2C(F)(F)[C@@H]2C[C@H]32)n1)S(C)(=O)=O [Formula (Ia), N—((S)-1-(3-(4-chloro-3-(methylsulfonamido)-1-(2,2,2-trifluoroethyl)-1H-indazol-7-yl)-6-(3-methyl-3-(methylsulfonyl)but-1-yn-1-yl)pyridin-2-yl)-2-(3,5-difluorophenyl)ethyl)-2-((3bS,4aR)-5,5-difluoro-3-(trifluoromethyl)-3b,4,4a,5-tetrahydro-1H-cyclopropa[3,4]cyclopenta[1,2-c]pyrazol-1-yl)acetamide]
EC50 Fold-Change (NNRTI-resistant viruses; K103N): 0.3 ± 0.1
EC50 Fold-Change (NNRTI-resistant viruses; K103N/Y181C): 0.5 ± 0.2
EC50 Fold-Change (NNRTI-resistant viruses; L100I/K103N): 0.5 ± 0.2
EC50 Fold-Change (NNRTI-resistant viruses; Y181C): 1.6 ± 1.0
EC50 Fold-Change (NNRTI-resistant viruses; Y188L): 0.5 ± 0.1
activity against all tested mutants, in words (NNRTI-resistant viruses; mutants resistant to NNRTIs): fully active
EC50 Fold-Change (INSTI-resistant viruses; E92Q/N155H): 0.9 ± 0.4
EC50 Fold-Change (INSTI-resistant viruses; E138K/Q148K): 0.7 ± 0.3
EC50 Fold-Change (INSTI-resistant viruses; G140S/Q148R): 0.8 ± 0.3
EC50 Fold-Change (INSTI-resistant viruses; N155H/Q148R): 1.3 ± 0.7
EC50 Fold-Change (INSTI-resistant viruses; R263K/M50I): 0.9 ± 0.5
EC50 Fold-Change (INSTI-resistant viruses; Y143R): 0.5 ± 0.1
activity against all tested mutants, in words (INSTI-resistant viruses; mutants resistant to INSTIs): fully active
bioavailability ([1]; male, Sprague-Dawley, plasma, rat, single oral 5.0 mg/kg, same solution, calculated based on AUC0-72h, mean ± SD, n=3, read-out: F (oral bioavailability)): 21.7 ± 8.9%
AUC(0-inf) [1, 2]: 25200 ± 10200 µM·h
Cmax [1, 2]: 336 ± 116 µM
Tmax [1, 2]: 10 ± 3.5 h
AUC(0-t) ([1]; male, Sprague-Dawley, plasma, rat, single oral 5.0 mg/kg, solution in 5% ethanol/20% propylene glycol/45% PEG 300/30% 0.01 N HCl, mean ± SD, n=3, read-out: AUC0-72h): 13500 ± 3930 µM·h
F % (bioavailability), in words ([1]; rats, oral solution): moderate
EC50 (HIV-1 clinical isolates; Human immunodeficiency virus 1, BAL, PBMC, 168 h, read-out: EC50 in human PBMCs, HIV-1 subtype B isolate Ba-L, 7-day infection, RT activity readout, mean of triplicate): 0.04 nM
EC50 (HIV-1 clinical isolates; Human immunodeficiency virus 1, PBMC, 168 h, read-out: EC50 in human PBMCs, HIV-1 CRF01_AE isolate 90TH_CM235, 7-day infection, RT activity readout, mean of triplicate): 0.04 nM
EC50 (HIV-1 clinical isolates; Human immunodeficiency virus 1, PBMC, 168 h, read-out: EC50 in human PBMCs, HIV-1 CRF02_AG isolate 01CM0008BBY, 7-day infection, RT activity readout, mean of triplicate): 0.05 nM
EC50 (HIV-1 clinical isolates; Human immunodeficiency virus 1, PBMC, 168 h, read-out: EC50 in human PBMCs, HIV-1 CRF02_AG isolate 91DJ263, 7-day infection, RT activity readout, mean of triplicate): 0.04 nM
EC50 (HIV-1 clinical isolates; Human immunodeficiency virus 1, PBMC, 168 h, read-out: EC50 in human PBMCs, HIV-1 Group N isolate YBF30, 7-day infection, RT activity readout, mean of triplicate): 0.02 nM
EC50 (HIV-1 clinical isolates; Human immunodeficiency virus 1, PBMC, 168 h, read-out: EC50 in human PBMCs, HIV-1 Group O isolate BCF01, 7-day infection, RT activity readout, mean of triplicate): 0.04 nM
EC50 (HIV-1 clinical isolates; Human immunodeficiency virus 1, PBMC, 168 h, read-out: EC50 in human PBMCs, HIV-1 subtype A isolate 92UG031, 7-day infection, RT activity readout, mean of triplicate): 0.04 nM
EC50 (HIV-1 clinical isolates; Human immunodeficiency virus 1, PBMC, 168 h, read-out: EC50 in human PBMCs, HIV-1 subtype A isolate 92UG037, 7-day infection, RT activity readout, mean of triplicate): 0.07 nM
EC50 (HIV-1 clinical isolates; Human immunodeficiency virus 1, PBMC, 168 h, read-out: EC50 in human PBMCs, HIV-1 subtype B isolate 89BZ_167, 7-day infection, RT activity readout, mean of triplicate): 0.08 nM
EC50 (HIV-1 clinical isolates; Human immunodeficiency virus 1, PBMC, 168 h, read-out: EC50 in human PBMCs, HIV-1 subtype B isolate 90US_873, 7-day infection, RT activity readout, mean of triplicate): 0.04 nM
EC50 (HIV-1 clinical isolates; Human immunodeficiency virus 1, PBMC, 168 h, read-out: EC50 in human PBMCs, HIV-1 subtype B isolate 91US001, 7-day infection, RT activity readout, mean of triplicate): 0.03 nM
EC50 (HIV-1 clinical isolates; Human immunodeficiency virus 1, PBMC, 168 h, read-out: EC50 in human PBMCs, HIV-1 subtype B isolate 91US004, 7-day infection, RT activity readout, mean of triplicate): 0.04 nM
EC50 (HIV-1 clinical isolates; Human immunodeficiency virus 1, PBMC, 168 h, read-out: EC50 in human PBMCs, HIV-1 subtype B isolate 96TH_NP1538, 7-day infection, RT activity readout, mean of triplicate): 0.05 nM
EC50 (HIV-1 clinical isolates; Human immunodeficiency virus 1, PBMC, 168 h, read-out: EC50 in human PBMCs, HIV-1 subtype B isolate JR-CSF, 7-day infection, RT activity readout, mean of triplicate): 0.04 nM
EC50 (HIV-1 clinical isolates; Human immunodeficiency virus 1, PBMC, 168 h, read-out: EC50 in human PBMCs, HIV-1 subtype C isolate 92BR025, 7-day infection, RT activity readout, mean of triplicate): 0.05 nM
EC50 (HIV-1 clinical isolates; Human immunodeficiency virus 1, PBMC, 168 h, read-out: EC50 in human PBMCs, HIV-1 subtype C isolate 98US_MSC5016, 7-day infection, RT activity readout, mean of triplicate): 0.1 nM
EC50 (HIV-1 clinical isolates; Human immunodeficiency virus 1, PBMC, 168 h, read-out: EC50 in human PBMCs, HIV-1 subtype D isolate 92UG001, 7-day infection, RT activity readout, mean of triplicate): 0.02 nM
EC50 (HIV-1 clinical isolates; Human immunodeficiency virus 1, PBMC, 168 h, read-out: EC50 in human PBMCs, HIV-1 subtype D isolate 98UG_57128, 7-day infection, RT activity readout, mean of triplicate): 0.03 nM
EC50 (HIV-1 clinical isolates; Human immunodeficiency virus 1, PBMC, 168 h, read-out: EC50 in human PBMCs, HIV-1 subtype E isolate CMU02, 7-day infection, RT activity readout, mean of triplicate): 0.05 nM
EC50 (HIV-1 clinical isolates; Human immunodeficiency virus 1, PBMC, 168 h, read-out: EC50 in human PBMCs, HIV-1 subtype E isolate CMU08, 7-day infection, RT activity readout, mean of triplicate): 0.05 nM
EC50 (HIV-1 clinical isolates; Human immunodeficiency virus 1, PBMC, 168 h, read-out: EC50 in human PBMCs, HIV-1 subtype F isolate 93BR020, 7-day infection, RT activity readout, mean of triplicate): 0.05 nM
EC50 (HIV-1 clinical isolates; Human immunodeficiency virus 1, PBMC, 168 h, read-out: EC50 in human PBMCs, HIV-1 subtype G isolate JV1083, 7-day infection, RT activity readout, mean of triplicate): 0.16 nM
EC50 (HIV-1 clinical isolates; Human immunodeficiency virus 1, PBMC, read-out: HIV-1 EC50 Mean ± s.d., mean over the 22 HIV-1 clinical isolates, human PBMCs): 0.05 ± 0.03 nM
EC50 (HIV-1 clinical isolates; Human immunodeficiency virus 1, PBMC, read-out: HIV-1 EC50 Median, median over the 22 HIV-1 clinical isolates, human PBMCs): 0.04 nM
EC50 (HIV-1 clinical isolates; Human immunodeficiency virus 1, PBMC, read-out: HIV-1 EC50 Range, range over the 22 HIV-1 clinical isolates, human PBMCs): 0.02 to 0.16 nM
